Measured values taken from paper PMC12518639, “Apomorphine is a novel necroptosis inhibitor targeting mixed lineage kinase domain-like protein oligomerization” (Cell Death Discovery, 2025).

Legend:
p-MLKL = assay: Western blot of phosphorylated MLKL in whole cell lysates; type: cell-based, human; conditions: 8 h
Protocol: To identify potential inhibitors of the necroptosis pathway targeting MLKL or the process of p-MLKL pore formation on the membrane, we screened a library of 2150 compounds, including FDA-approved drugs and those in phase 1–3 clinical trials, using THP-1-HMGB1-Lucia™ cells expressing the HMGB1-luciferase fusion protein. The cells were treated with a necroptosis-inducing mixture containing TNF-α, BV6, and Z-VAD-FMK (TBZ) in addition to the compound library (Fig. 1A). The supernatants were harvested to measure luciferase activities for necroptosis. The luciferase activities of cell supernatants treated with TBZ alone were considered as the maximum release (100%) of HMGB1-luciferase. NEC-1, a known RIP1 inhibitor used in both humans and mice, was used as a positive control. […] Next, we performed a propidium iodide (PI) uptake assay to exclude cytotoxic compounds using THP-1 cells. Then, we selected candidate molecules that were arbitrarily less than 30% of those treated with TBZ. […] Next, the inhibition levels of p-MLKL were tested to select MLKL-targeting molecules (Figs. 1C and S1A). Compounds that reduced p-MLKL levels to less than 30% of TBZ-treated controls were considered as potential inhibitors of MLKL phosphorylation. Conversely, compounds that maintained p-MLKL levels above 70% were selected because they are presumed to prevent the formation of pores in the plasma membrane by interfering with oligomerization.
(§1) The cells were harvested and lysed in 1× RIPA buffer (R4100-010, GenDEPOT, Katy, TX, USA) containing protease (P3100-001, GenDEPOT) and phosphatase (1862495, Thermo Fisher Scientific) inhibitors. WCLs were then centrifuged at 20,000×g for 30 min at 4 °C and subjected to non-reducing or reducing 8–12% SDS-PAGE gel electrophoresis. The membrane was blocked with 5% non-fat milk in TBS and probed with antibodies. Antibodies to hMLKL (14993S), mMLKL (97705S), phospho-hMLKL (Ser358) (91689S), phospho-mMLKL (Ser345) (37333S), phospho-hRIP1 (Ser166) (65746S), mRIP1 (3493S), phospho-mRIP1 (Ser321) (38662S), phospho-hRIP3 (Ser227) (93654), mRIP3 (95702S), p-mRIP3 (Thr231/Ser232) (91702S), and LDH (2012S) (Cell Signaling Technology, Danvers, MA, USA), and GAPDH (LF-PA0018, Abfrontier, S. Korea), hRIP1 (ab72139, Abcam, Cambridge, UK), hRIP3 (sc-135170, Santa Cruz Biotechnology, Dallas, TX, USA), HMGB1 (ab78923, Abcam), and LAMP1 (ab24170, Abcam) antibodies were used.
Fig. S1 Assessment of p-MLKL inhibition to identify MLKL-targeting molecules. (A) Quantification graph corresponding to Fig. 1C. […] Whole-cell lysates (WCLs) were collected and subjected to Western blot analysis under reducing conditions using antibodies against p-MLKL, MLKL, and GAPDH. The p-MLKL/MLKL ratio was quantified and compared to that of TBZ-treated cells. Data represent the mean of three independent experiments. (B) Quantification graph corresponding to Fig. 1D. […] Cytosolic and membrane fractions were collected and analyzed by Western blot under reducing conditions. The levels of p-MLKL and p-RIP1 were normalized to LDH (cytosolic marker) and LAMP1 (membrane marker), respectively. Quantified ratios were compared to those of TBZ-treated cells (n = 3 independent experiments).

p-MLKL and p-RIP1 = assay: Western blot of cytosol and membrane fractions; type: cell-based, human; conditions: THP-1, TBZ, 20 μM
Protocol: as §1
Cell membrane fractionation was performed to determine whether MLKL oligomers were retained in the cell membrane fraction. Briefly, THP-1 cells were harvested and resuspended in 20 mM TBS (pH 7.4) containing 10 mM KCl, 1 mM MgCl2, protease inhibitor (P3100-001, GenDEPOT), and phosphatase inhibitor (1862495, Thermo Fisher Scientific). The cell suspension was passed through a 22-gauge needle and centrifuged at 20,000×g for 15 min and stored as the cytoplasmic fraction. The pellet was resuspended in lysis buffer and stored as the crude membrane fraction.
Fig. S1 Assessment of p-MLKL inhibition to identify MLKL-targeting molecules. (A) Quantification graph corresponding to Fig. 1C. THP-1 cells were treated with TBZ in the presence of secondarily selected compounds (S1–S72, 20 μM). Whole-cell lysates (WCLs) were collected and subjected to Western blot analysis under reducing conditions using antibodies against p-MLKL, MLKL, and GAPDH. The p-MLKL/MLKL ratio was quantified and compared to that of TBZ-treated cells. Data represent the mean of three independent experiments. (B) Quantification graph corresponding to Fig. 1D. THP-1 cells were treated with TBZ in the presence of third-round selected compounds (S1–S62, 20 μM). Cytosolic and membrane fractions were collected and analyzed by Western blot under reducing conditions. The levels of p-MLKL and p-RIP1 were normalized to LDH (cytosolic marker) and LAMP1 (membrane marker), respectively. Quantified ratios were compared to those of TBZ-treated cells (n = 3 independent experiments).

CN1CCc2cccc3c2[C@@H]1Cc1ccc(O)c(O)c1-3 [S62, (6aS)-6-methyl-5,6,6a,7-tetrahydro-4H-dibenzo[de,g]quinoline-10,11-diol]
activity at 20 µM (p-MLKL; Homo sapiens, THP-1, TBZ and 20 μM compound, whole cell lysates, read-out: p-MLKL/MLKL ratio relative to TBZ-treated cells (% Value)): 100% | effect on p-MLKL, p-RIP3 and p-RIP1 in whole cell lysates (p-MLKL; THP-1, TBZ, 20 μM): little to no effect | p-MLKL levels in the cytosolic fraction (p-MLKL and p-RIP1): little or moderate inhibition | p-MLKL levels in the membrane fraction (p-MLKL and p-RIP1): significantly inhibited
